Measured values: paper PMC3847553, “Kinetic properties of “dual” orexin receptor antagonists at OX1R and OX2R orexin receptors” (Frontiers in Neuroscience, 2013)
One block for each compound: values may come before it.

How the values were obtained:
OX2R = assay: FLIPR calcium assay, OX2R, species not given; assay type: cell-based; conditions: species not stated
Experimental: (§1) Determination of orexin A-stimulated calcium accumulation was performed over 2 days using FLIPR® (Fluorescent imaging plate reader from Molecular Devices-FLIPR384). Cells expressing either human, rat or mouse OX1R or OX2R were seeded at 8,000 cells/well in black 384 well clear bottom plates and incubated overnight at 37°C. The following day, medium was discarded and cells loaded with 50 μ l of 1 mM Fluo-4 AM (Invitrogen F14202) in dimethyl sulfoxide in working buffer (Hanks' balanced salt solution, 10 mM HEPES) and incubated for 60 min at 37°C. The loading buffer was removed and cells were washed with 100 μ l working buffer containing […], 0.1% BSA, and 2.5 mM Probenecid (pH 7.4) to remove the excess Fluo-4 AM. Working buffer was added and plates were incubated 10–15 min at room temperature. The assay plate was then transferred to the Molecular Devices-FLIPR384. The baseline calcium signal was recorded for 10 s, then the antagonist of interest was injected (10 μl at 3 times the final concentration) and the calcium signal recorded every second for 1 min, then every 2 s 40 times. Plates were then incubated at room temperature for 30 min, 1, 2, or 4 h.

human OX2R [1] = target: T1, human OX2R (Homo sapiens, UniProt O43614); assay: [3H]-BBAC competition binding over time, CHO-hOX2 membranes
T1 construct: expressed in transfected cells; host or cells: CHO; cells from GNF, San Diego
T1 sequence (O43614 1-444): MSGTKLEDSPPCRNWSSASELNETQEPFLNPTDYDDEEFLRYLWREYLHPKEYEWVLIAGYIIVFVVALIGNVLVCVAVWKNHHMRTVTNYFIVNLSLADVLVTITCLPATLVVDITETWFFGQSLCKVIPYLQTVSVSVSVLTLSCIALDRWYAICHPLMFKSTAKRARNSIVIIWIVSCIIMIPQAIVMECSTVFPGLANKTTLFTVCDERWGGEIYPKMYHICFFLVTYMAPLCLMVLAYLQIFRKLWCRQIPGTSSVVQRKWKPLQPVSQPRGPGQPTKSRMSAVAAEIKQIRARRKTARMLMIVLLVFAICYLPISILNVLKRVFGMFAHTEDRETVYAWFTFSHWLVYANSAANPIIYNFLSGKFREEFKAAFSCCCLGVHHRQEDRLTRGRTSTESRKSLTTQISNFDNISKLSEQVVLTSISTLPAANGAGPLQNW
Description: (§2) Chinese Hamster Ovary (CHO) cells stably transfected with the cDNA encoding the human OX1R (CHO-hOX1) or OX2R (CHO-hOX2) were used (kindly provided by T. Cremer and Dr. S. Geisse, NIBR Basel, Switzerland). For measurements of calcium accumulation using FLIPR® (Fluorescent Imaging Plate Reader) assay, CHO or Human Embryonic Kidney (HEK) cells stably expressing mouse, rat or human OX1R or OX2R (kindly provided by Dr. A. Chen, GNF, San Diego, CA, USA) were used. […] Cells were maintained in a humidified incubator at 37°C in 5% CO2. For crude cell membrane preparations, cells were washed and harvested in 10 mM HEPES (pH 7.5), and centrifuged at 4°C for 5 min at 2500 g. The cell pellet was either stored at −80°C or used directly.
(§3) Cell membranes were resuspended in binding assay buffer at 4°C (10 mM HEPES, pH 7.5, 0.5% (w/v) bovine serum albumin (BSA), 5 mM MgCl2, 1 mM CaCl2, and 0.05% Tween 20) and homogenized with a Polytron homogenizer at 50 Hz for 20 s. […] Radioactivity was quantified using a TopCount™ microplate counter (Perkin Elmer).
(§4) All data was analyzed using GraphPad Prism 4.0 (GraphPad, San Diego, USA). The saturation data was fit to a non-linear regression model for saturation binding with consideration for one site binding. […] Competition binding data was fit to a non-linear regression model for competition binding with consideration for variable one site binding with a non-fixed Hill slope.

OX1R [2] = assay: FLIPR calcium assay, OX1R, species not given; assay type: cell-based; conditions: species not stated
Experimental: as §1

human OX1R [3] = target: T2, human OX1R (Homo sapiens, UniProt O43613); assay: [3H]-BBAC competition binding over time, CHO-hOX1 membranes
T2 construct: expressed in transfected cells; host or cells: CHO; cells from GNF, San Diego
T2 sequence (O43613 1-425): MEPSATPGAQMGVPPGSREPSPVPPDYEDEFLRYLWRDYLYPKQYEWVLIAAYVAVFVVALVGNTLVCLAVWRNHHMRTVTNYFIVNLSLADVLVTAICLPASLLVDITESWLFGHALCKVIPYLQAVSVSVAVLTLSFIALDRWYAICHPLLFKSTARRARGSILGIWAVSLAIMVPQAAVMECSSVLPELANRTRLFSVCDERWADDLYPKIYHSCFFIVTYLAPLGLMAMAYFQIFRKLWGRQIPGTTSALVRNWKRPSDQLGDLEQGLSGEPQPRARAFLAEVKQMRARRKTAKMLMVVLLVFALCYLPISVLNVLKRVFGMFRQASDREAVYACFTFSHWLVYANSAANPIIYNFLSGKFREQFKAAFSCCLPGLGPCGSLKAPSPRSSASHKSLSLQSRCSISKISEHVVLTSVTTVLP
Description: as §2, §3, §4

sleep = tested on: sleep; set-up: method as in Fox et al., 2013; conditions: rodent studies; ref Fox et al., 2013; cited from earlier work
human OX1R [4] = target: T2, human OX1R; assay: [3H]-BBAC saturation binding, CHO-hOX1 membranes
Description: as §2, §3
(§5) Data in the figures is representative of the mean ± s.e.m. of a single experiment.
(§6) All data was analyzed using GraphPad Prism 4.0 (GraphPad, San Diego, USA). The saturation data was fit to a non-linear regression model for saturation binding with consideration for one site binding. […]

human OX2R [5] = target: T1, human OX2R; assay: [3H]-BBAC saturation binding, CHO-hOX2 membranes
Description: as §2, §3, §5, §6

OX1R [6] = tested on: OX1R; set-up: method as in Sakurai et al., 1998; conditions: competition radioligand binding, ref Sakurai et al., 1998; cited from earlier work

time to reach equilibrium (human OX2R [1]; competition for [3H]-BBAC, OX2R): 15 to 30 min
time to reach equilibrium (human OX1R [3]; competition for [3H]-BBAC, OX1R): 15 to 30 min
Compound: Cn1c(SCC(=O)N2CCC[C@H]2C(=O)Nc2ccccc2-c2ccccc2)nc2ccccc21 [BBAC, (S)-N-([1,1′-biphenyl]-2-yl)-1-(2-((1-methyl-1H-benzo[d]imidazol-2-yl)thio)acetyl)pyrrolidine-2-carboxamide]
effect of incubation time on potency in calcium assay (OX2R): constant potency values irrespective of the incubation time
effect of incubation time on competition curves (human OX2R [1]; competition for 4.6 nM [3H]-BBAC, 15 min to 4 h, human OX2R): no significant difference in IC50 values measured between 30 min and 4 h
effect of incubation time on potency in calcium assay (OX1R [2]): constant potency values irrespective of the incubation time
effect of incubation time on competition curves (human OX1R [3]; competition for 4.6 nM [3H]-BBAC, 15 min to 4 h, human OX1R): no significant difference in IC50 values measured between 30 min and 4 h

Compound: C[C@@H]1CC[C@@H](COc2ccc(F)cn2)CN1C(=O)c1cc(F)ccc1-c1ncccn1 [DORA-22]
effect on sleep (sleep): promotes sleep with dose-dependent increases in REM sleep

incubation time sufficient to reach Bmax and KD values comparable to 4 h (human OX1R [4]): 15 to 30 min
Kd (human OX2R [5]; CHO-hOX2 membranes, room temperature): ~1 nM
incubation time sufficient to reach Bmax and KD values comparable to 4 h (human OX2R [5]; OX2R): 15 to 30 min
Compound: Cn1c(SCC(=O)N2CCC[C@H]2C(=O)Nc2ccccc2-c2ccccc2)nc2ccccc21 [[^3H]-BBAC, (S)-N-([1,1′-biphenyl]-2-yl)-1-(2-((1-methyl-1H-benzo[d]imidazol-2-yl)thio)acetyl)pyrrolidine-2-carboxamide]

Compound: orexin B: endogenous orexin peptide
affinity (OX1R [6]): 250 nM
